The values below come from patent US7317028B2, “Cell differentiation inducer” (Schering Aktiengesellschaft, priority 1996, dated 2008).

Where a name gives a salt, the structure may show the parent alone.

The first assay concerns A2780 cells. Kind of assay: Test for induction of differentiation in A2780 cells (ALP activity, ALPmin). It is filed as cell-based, human.
Settings: not given
On the procedure:
Increase of alkaline phosphatase (ALP) activity is known as an indicator for differentiation of human colon cancer cells. […] Thus, differentiation inducing action was evaluated using ALP activity as an indicator.
To each well of a 96-well plate was placed 0.1 mL of A2780 cells (15,000 cells/well) and the next day was added 0.1 mL of a sequential dilute of test solution with the medium. […] The reaction was quenched with 0.05 mL/well of 3N sodium hydroxide aq. For each well, an absorbance at 405 nm was measured to determine the minimum concentration of the drug inducing increase of ALP activity (ALPmin).
Compound `CN(Cc1ccc(C(=O)Nc2ccccc2N)cc1)C(=O)COc1cccnc1` [Example 44, N-(2-aminophenyl)-4-[N-methyl-N-(pyridin-3-yl)oxyacetyl]aminomethylbenzamide] had a minimal effective concentration of 0.01 µM.

Staying with this assay, now noted: A2780 cells, 3 days incubation; minimum concentration of the drug inducing increase of ALP activity.
In turn, `COC(=O)c1ccc(C(=O)NCc2ccc(C(=O)Nc3ccccc3N)cc2)cc1` [Example 11, N-(2-aminophenyl)-4-[N-(4-methoxycarboxybenzoyl)aminomethyl]benzamide] gave a minimal effective concentration of 1 µM.

The compound `Cn1cccc1C(=O)NCc1ccc(C(=O)Nc2ccccc2N)cc1` [Example 24, N-(2-aminophenyl)-4-[N-(N′-methyl-1H-pyrrol-2-yl)carbonylaminomethyl]benzamide] came in with a minimal effective concentration of 1 µM.

Regarding `Cc1ncsc1CCOC(=O)NCc1ccc(C(=O)Nc2ccccc2N)cc1` [Example 64, N-(2-aminophenyl)-4-C[N-[2-(4-methylthiazol-5-yl)ethoxycarbonyl]aminomethyl]benzamide], the minimal effective concentration was found to be 3 µM.

For `Nc1ccccc1NC(=O)c1ccc(CNC(=O)OC2CN3CCC2CC3)cc1` (centres unmarked) [Example 72, N-(2-aminophenyl)-4-[N-(quinuclidin-3-yl)oxycarbonylaminomethyl]benzamide], the minimal effective concentration came to 10 µM.

With `Nc1ccccc1NC(=O)c1ccc(CNC(=O)NCc2cccnc2)cc1` [Example 89, N-(2-aminophenyl)-4-[N′-(pyridin-3-ylmethyl)ureidomethyl]benzamide], the minimal effective concentration is on record as 0.3 µM.

Regarding `Nc1cccc(NC(=O)NCc2ccc(C(=O)Nc3ccccc3N)cc2)c1` [Example 90, N-(2-aminophenyl)-4-[N′-(3-aminophenyl)ureidomethyl]benzamide], the minimal effective concentration was 3 µM.

Consider `Nc1ccccc1NC(=O)c1ccc(CNC(=O)Nc2cccnc2)cc1` [Example 91, N-(2-aminophenyl)-4-[N′-(pyridin-3-yl)ureidomethyl]benzamide], for which the minimal effective concentration was found to be 0.1 µM.

In the case of `Nc1cccc(NC(=S)NCc2ccc(C(=O)Nc3ccccc3N)cc2)c1` [Example 92, N-(2-aminophenyl)-4-[N′-(3-aminophenyl)thioureidomethyl]benzamide], the minimal effective concentration was determined as 3 µM.

For the compound `Nc1ccccc1NC(=O)c1ccc(CNC(=S)Nc2cccc([N+](=O)[O-])c2)cc1` [Example 93, N-(2-aminophenyl)-4-[N′-(3-nitrophenyl)thioureidomethyl]benzamide], the minimal effective concentration is 3 µM.

As for `Nc1ccc(F)cc1NC(=O)c1ccc(CNC(=O)NCc2cccnc2)cc1` [Example 94, N-(2-amino-5-fluorophenyl)-4-[N′-(pyridin-3-yl)methylureidomethyl]benzamide], the minimal effective concentration was 3 µM.

`O=C(NCc1ccc(C(=O)Nc2ccccc2O)cc1)NCc1cccnc1` [Example 95, N-(2-hydroxyphenyl)-4-[N′-(pyridin-3-yl)methylureidomethyl]benzamide] displayed a minimal effective concentration of 3 µM.

The assay is the same for the next values; noted with them: Homo sapiens, 72 h; A2780 cells, 3 days incubation; minimum concentration of the drug inducing increase of ALP activity.
`Nc1cccc(NC(=O)c2ccc(CNC(=O)OCc3cccnc3)cc2)c1` [Comp. Ex. 1, N-(3-aminophenyl)-4-[N-(pyridin-3-yl)methoxycarbonylaminomethyl]benzamide, reference compound] showed a minimal effective concentration above 100 µM.

The compound `Nc1ccc(NC(=O)c2ccc(CNC(=O)OCc3cccnc3)cc2)cc1` [Comp. Ex. 2, N-(4-aminophenyl)-4-[N-(pyridin-3-yl)methoxycarbonylaminomethyl]benzamide, reference compound] showed a minimal effective concentration above 100 µM.

The compound `Cc1ccc(C(=O)NCc2ccc(C(=O)Nc3ccccc3N)cc2)cc1` [Example 4, N-(2-aminophenyl)-4-[N-(4-methylbenzoyl)aminomethyl]benzamide hydrochloride] gave a minimal effective concentration of 1 µM.

In turn, `Nc1ccccc1NC(=O)c1ccc(CNC(=O)c2ccc(C(=O)O)cc2)cc1` [Example 10, N-(2-aminophenyl)-4-[N-(4-carboxybenzoyl)aminomethyl]benzamide hydrochloride] yielded a minimal effective concentration of 3 µM.

In turn, `Nc1ccccc1NC(=O)c1ccc(CNC(=O)c2c[nH]cn2)cc1` [Example 27, N-(2-aminophenyl)-4-[N-(imidazol-4-yl)carbonylaminomethyl]benzamide] gave a minimal effective concentration of 10 µM.

On to `Nc1ccccc1NC(=O)c1ccc(CNC(=O)CNc2cccnc2)cc1` [Example 35, N-(2-aminophenyl)-4-[N-[N-(pyridin-3-yl)aminoacetyl]aminomethyl]benzamide], for which the minimal effective concentration was found to be 0.3 µM.

The compound `Nc1nc(CC(=O)NCc2ccc(C(=O)Nc3ccccc3N)cc2)cs1` [Example 36, N-(2-aminophenyl)-4-[N-(2-aminothiazol-4-yl)acetylaminomethyl]benzamide] registered a minimal effective concentration of 10 µM.

As to `O=C(CCc1cccnc1)NCc1ccc(C(=O)Nc2ccccc2O)cc1` [Example 40, N-(2-hydroxyphenyl)-4-[N-[3-(pyridin-3-yl)propionyl]aminomethyl]benzamide], the minimal effective concentration is 10 µM.

As to `O=C(COc1cccnc1)NCc1ccc(C(=O)Nc2ccccc2O)cc1` [Example 41, N-(2-hydroxyphenyl)-4-[N-(pyridin-3-yl)oxyacetylaminomethyl]benzamide], the minimal effective concentration was determined as 0.3 µM.

The compound `Nc1ccccc1NC(=O)c1ccc(CN(CCCc2cccnc2)C(=O)COc2cccnc2)cc1` [Example 43, N-(2-aminophenyl)-4-[N-(pyridin-3-yl)oxyacetyl-N-[3-(pyridin-3-yl)propyl]aminomethyl]benzamide] yielded a minimal effective concentration of 3 µM.

`Nc1ccccc1NC(=O)c1ccc(CNC(=O)OCc2ccccc2)cc1` [Example 49, N-(2-aminophenyl)-4-[N-(benzyloxycarbonyl)aminomethyl]benzamide] yielded a minimal effective concentration of 1 µM.

Consider `Nc1ccccc1NC(=O)c1ccc(CNC(=O)OCc2cccnc2Cl)cc1` [Example 58, N-(2-aminophenyl)-4-[N-(2-chloropyridin-3-yl)methoxycarbonylaminomethyl]benzamide], for which the minimal effective concentration amounted to 3 µM.

In turn, `CN1CCN(COC(=O)NCc2ccc(C(=O)Nc3ccccc3N)cc2)CC1` [Example 66, N-(2-aminophenyl)-4-[N-(4-methylpiperazin-1-yl)methoxycarbonylaminomethyl]benzamide] came in with a minimal effective concentration of 3 µM.

Take `Nc1ccccc1NC(=O)c1ccc(CNC(=O)OCC2CCOC2)cc1` (centres unmarked) [Example 67, N-(2-aminophenyl)-4-[N-(tetrahydrofuran-3-yl)methoxycarbonylaminomethyl]benzamide]: the minimal effective concentration worked out at 3 µM.

The compound `Nc1ccc(F)cc1NC(=O)c1ccc(CNC(=O)OCc2cccnc2)cc1` [Example 70, N-(2-amino-5-fluorophenyl)-4-[N-(pyridin-3-yl)methoxycarbonylaminomethyl]benzamide] yielded a minimal effective concentration of 0.1 µM.

As to `Nc1ccccc1NC(=O)c1ccc(CN(Cc2cccnc2)C(=O)OCc2cccnc2)cc1` [Example 79, N-(2-aminophenyl)-4-[N-(pyridin-3-yl)methyl-N-(pyridin-3-yl)methoxycarbonylaminomethyl]benzamide], the minimal effective concentration amounted to 0.1 µM.

`Nc1ccccc1NC(=O)c1ccc(CN(CCCc2cccnc2)C(=O)OCc2cccnc2)cc1` [Example 80, N-(2-aminophenyl)-4-[N-[3-(Pyridin-3-yl)propyl]-N-(pyridin-3-yl)methoxycarbonylaminomethyl]benzamide] showed a minimal effective concentration of 0.1 µM.

With `O=C(Nc1ccccc1O)c1ccc(CN(Cc2cccnc2)C(=O)OCc2cccnc2)cc1` [Example 81, N-(2-hydroxyphenyl)-4-[N-(pyridin-3-yl)methyl-N-(pyridin-3-yl)methoxycarbonylaminomethyl]benzamide], the minimal effective concentration was found to be 10 µM.

With `Nc1ccccc1NC(=O)c1ccc(NC(=O)OCCc2cccnc2)cc1` [Example 86, N-(2-aminophenyl)-4-[N-[2-(pyridin-3-yl)ethoxycarbonyl]amino]benzamide], the minimal effective concentration is 0.3 µM.

On to `CC(=O)N(CCc1ccc(C(=O)Nc2ccccc2N)cc1)c1cccnc1` [Example 96, N-(2-aminophenyl)-4-[2-[N-(pyridin-3-yl)-acetylamino]ethyl]benzamide], for which the minimal effective concentration was 10 µM.

In the case of `Nc1ccccc1NC(=O)c1ccc(COC(=O)NCCCn2ccnc2)cc1` [Example 99, N-(2-aminophenyl)-4-[3-(imidazol-1-yl)propylaminocarbonyloxymethyl]benzamide], the minimal effective concentration amounted to 3 µM.

In turn, `Nc1ccccc1NC(=O)c1ccc(NC(=O)CCCc2ccccc2)cc1` [Example 101, N-(2-aminophenyl)-4-[(4-phenylbutanoyl)amino]benzamide] returned a minimal effective concentration of 3 µM.

In the case of `Nc1ccccc1NC(=O)c1ccc(NC(=O)Cc2ccc(Cl)cc2)cc1` [Example 102, N-(2-aminophenyl)-4-[(4-chlorophenylacetyl)amino]benzamide], the minimal effective concentration worked out at 3 µM.

`Nc1ccccc1NC(=O)c1ccc(NC(=O)Cc2ccccc2[N+](=O)[O-])cc1` [Example 103, N-(2-aminophenyl)-4-[(2-nitrophenylacetyl)amino]benzamide hydrochloride] returned a minimal effective concentration of 1 µM.

`COc1ccc(CC(=O)Nc2ccc(C(=O)Nc3ccccc3N)cc2)cc1` [Example 107, N-(2-aminophenyl)-4-[(4-methoxyphenylacetyl)amino]benzamide] gave a minimal effective concentration of 1 µM.

As to `Nc1ccccc1NC(=O)c1ccc(NC(=O)Cc2ccc(C(F)(F)F)cc2)cc1` [Example 109, N-(2-aminophenyl)-4-[(4-trifluoromethylphenylacetyl)amino]benzamide], the minimal effective concentration turned out to be 1 µM.
